Reference: US8158634B2, “Compounds and compositions as inhibitors of cannabinoid receptor 1 activity” (IRM LLC, priority 2004, dated 2012)

Biological target: T1, human cannabinoid receptor 2 (CB2) (Homo sapiens, UniProt P34972)
T1 construct: expressed in transfected cells
Experiment: CB2 in vitro assays on CHO cell membranes ([3H]-CP55940 ligand binding / GTPγS binding), Ki by Cheng-Prusoff
Conditions: membranes of CHO cells stably expressing human CB2; EC50 converted by Cheng-Prusoff
Protocol: Homogenized membranes are prepared from CHO cell clones stably expressing a human cannabinoid receptor 1 (CB1) or human cannabinoid receptor 2 (CB2). Cells are grown and scrapped from 15 cm tissue culture plates, and then subsequently centrifuged down. Cells are washed once with cold PBS, and resuspended in <20 ml of Buffer A (20 mM HEPES, pH 7.4, 10 mM EDTA, EDTA-free complete protease inhibitor cocktail [1 tablet/25 ml]). The cell suspension is homogenized on ice, using a Polytron homogenizer at 25000 rpm at three intervals of 15 seconds each. The homogenate is first centrifuged at 2000 rpm on a tabletop low speed centrifuge for 10 minutes. The supernatant, after passing through a cell strainer, is then centrifuged at 50,000×g for 25 minutes at 4° C. The pellet is resuspended into buffer B (15% glycerol, 20 mM HEPES, pH 7.4, 0.1 mM EDTA, EDTA-free complete protease inhibitor cocktail [1 tablet/10 ml]). Protein concentration of the prep is determined using the BCA Protein Assay kit using BSA as standard. The membranes are aliquoted and kept frozen at −80° C.
[^3H]-CP55940 ligand binding assay: Solutions of test compounds ranging from 100 μM to 0.01 nM are prepared in DMSO. The desired amount of membrane prep is diluted with ice-cold assay buffer (50 mM Tris-HCl, 2.5 mM EDTA, 5 mM MgCl2, 0.05% BSA, pH 7.4) and vortexed well. […]

T1 sequence (P34972 whole entry): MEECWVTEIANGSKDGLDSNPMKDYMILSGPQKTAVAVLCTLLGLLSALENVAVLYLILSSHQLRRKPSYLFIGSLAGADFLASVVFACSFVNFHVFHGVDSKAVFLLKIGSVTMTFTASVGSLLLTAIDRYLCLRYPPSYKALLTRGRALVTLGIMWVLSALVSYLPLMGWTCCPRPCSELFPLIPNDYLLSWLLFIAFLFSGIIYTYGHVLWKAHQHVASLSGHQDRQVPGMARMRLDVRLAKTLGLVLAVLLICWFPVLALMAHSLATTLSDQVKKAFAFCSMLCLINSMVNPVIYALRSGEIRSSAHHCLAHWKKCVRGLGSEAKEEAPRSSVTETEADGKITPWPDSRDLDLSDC

Compound `O=c1c2cnn(-c3ccccc3)c2nc(-c2ccccc2F)n1-c1ccc(Br)cc1` [Compound 19, 5-(4-Bromo-phenyl)-6-(2-fluoro-phenyl)-1-phenyl-1,5-dihydro-pyrazolo[3,4-d]pyrimidin-4-one] has a Ki greater than 5 µM.
